# Measured values published in patent US20200239530A1, “COMPOUNDS AND METHODS OF MODULATING PROTEIN DEGRADATION” (Vividion Therapeutics, Inc., priority 2017, published 2020).
# Legend:
# Q969K4 = target: T1, Q969K4 (Homo sapiens, UniProt Q969K4); assay: Competitive cysteine profiling, probe competition (Table 2B); type: binding; details: read-out: KB05_100 uM_percent_inhibition
# T1 construct: Cells were resuspended in cold PBS on ice and sonicated with a probe sonicator to achieve lysis; endogenous in cells
# From the text: (§1) The following 96-well sample prep protocol was used for sample preparation.
# Q96Q27 = target: T2, Q96Q27 (Homo sapiens, UniProt Q96Q27); assay: as above; type: binding; details: read-out: KB05_100 uM_percent_inhibition
# T2 construct: endogenous in cells
# From the text: as §1
# [1] = target: T3, MAP1B Microtubule-associated protein 1B (Homo sapiens, UniProt P46821); assay: Cysteine liganding, probe competition; type: binding
# T3 construct: Cells were resuspended in cold PBS on ice and sonicated with a probe sonicator to achieve lysis; endogenous in cells
# Summary of the method: (§2)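 Probe competition in native proteome: 5 mg/ml lysate, compound 1 hr 25° C, then desthiobiotin iodoacetamide (10 mM stock) 1 hr 25° C; acetone ppt, urea/DTT reduction, iodoacetamide alkylation, trypsin, streptavidin pull-down.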
# [2] = target: T4, GCN1L1 Translational activator GCN1 (Homo sapiens, UniProt Q92616); assay: Cysteine liganding, probe competition; type: binding
# T4 construct: 200 μL of lysate containing 5 mg/ml proteome was treated with 2 μL of 100× compound stock; endogenous in cells
# Summary of the method: as §2
# Q9Y576 = target: T5, Q9Y576 (Homo sapiens, UniProt Q9Y576); assay: Competitive cysteine profiling, probe competition (Table 2B); type: binding; details: 100 uM
# T5 construct: endogenous in cells
# From the text: as §1
# [3] = target: T6, ABCD3 ATP-binding cassette sub-family D member 3 (Homo sapiens, UniProt P28288); assay: Cysteine liganding, probe competition
# T6 construct: Cells were resuspended in cold PBS on ice and sonicated with a probe sonicator to achieve lysis; endogenous in cells
# Description: Cells were resuspended in cold PBS on ice and sonicated with a probe sonicator to achieve lysis. 200 μL of lysate containing 5 mg/ml proteome was treated with 2 μL of 100× compound stock in a 2-mL deep-well plate. The treated lysate was subsequently incubate at 25° C. for 1 hr with shaking at 600 rpm. The treated lysate was further incubated with 2 μL of 10 mM desthiobiotin iodoacetamide probe at 25° C. for 1 hr with shaking at 600 rpm. Next, the lysate was further treat with 20 μL of solution of PBS containing 11 mM MgSO4 and 2.5% Turbonuclease stock and incubated at 25° C. for 20 minutes with shaking at 600 rpm. 1.7 mL ice-cold acetone was added to each well and incubated at −20° C. for 2 hr, followed by max speed (4200 rpm) spin for 45 min. Acetone was then decanted and the plates were blotted to remove acetone. The plates were then dried in open air for 20 minutes. After drying, the plates were then covered with foil seal and stored at −80° C. overnight.
# The next day, samples were re-suspended in 90 μL of solution of 9M urea, 50 mM ammonium bicarbonate and 10 mM DTT by incubating at 65C for 20 min with shaking at 1500 rpm. Next, samples were cooled to 37° C. and then 10 μL of 500 mM iodoacetamide solution (92.48 mg/ml) was added. The samples were then incubated at 37° C. for 30 min with shaking at 600 rpm. […]
# [4] = target: T7, ZNF638 Zinc finger protein 638 (Homo sapiens, UniProt Q14966); assay: Cysteine liganding, probe competition; type: binding
# T7 construct: Cells were resuspended in cold PBS on ice and sonicated with a probe sonicator to achieve lysis; endogenous in cells
# Summary of the method: as §2
# Q8N961 = target: T8, Q8N961 (Homo sapiens, UniProt Q8N961); assay: Competitive cysteine profiling, probe competition (Table 2B); type: binding
# T8 construct: Cells were resuspended in cold PBS on ice and sonicated with a probe sonicator to achieve lysis; endogenous in cells
# From the text: as §1
# Q9NR09 = target: T9, Q9NR09 (Homo sapiens, UniProt Q9NR09); assay: as above; type: binding; details: 100 uM
# T9 construct: endogenous in cells
# From the text: as §1
# A6QL63 = target: T10, A6QL63 (Homo sapiens, UniProt A6QL63); assay: as above; type: binding; details: read-out: KB02_100 uM_percent_inhibition
# T10 construct: 200 μL of lysate containing 5 mg/ml proteome was treated with 2 μL of 100× compound stock; endogenous in cells
# From the text: as §1
# T3 sequence (P46821 whole entry): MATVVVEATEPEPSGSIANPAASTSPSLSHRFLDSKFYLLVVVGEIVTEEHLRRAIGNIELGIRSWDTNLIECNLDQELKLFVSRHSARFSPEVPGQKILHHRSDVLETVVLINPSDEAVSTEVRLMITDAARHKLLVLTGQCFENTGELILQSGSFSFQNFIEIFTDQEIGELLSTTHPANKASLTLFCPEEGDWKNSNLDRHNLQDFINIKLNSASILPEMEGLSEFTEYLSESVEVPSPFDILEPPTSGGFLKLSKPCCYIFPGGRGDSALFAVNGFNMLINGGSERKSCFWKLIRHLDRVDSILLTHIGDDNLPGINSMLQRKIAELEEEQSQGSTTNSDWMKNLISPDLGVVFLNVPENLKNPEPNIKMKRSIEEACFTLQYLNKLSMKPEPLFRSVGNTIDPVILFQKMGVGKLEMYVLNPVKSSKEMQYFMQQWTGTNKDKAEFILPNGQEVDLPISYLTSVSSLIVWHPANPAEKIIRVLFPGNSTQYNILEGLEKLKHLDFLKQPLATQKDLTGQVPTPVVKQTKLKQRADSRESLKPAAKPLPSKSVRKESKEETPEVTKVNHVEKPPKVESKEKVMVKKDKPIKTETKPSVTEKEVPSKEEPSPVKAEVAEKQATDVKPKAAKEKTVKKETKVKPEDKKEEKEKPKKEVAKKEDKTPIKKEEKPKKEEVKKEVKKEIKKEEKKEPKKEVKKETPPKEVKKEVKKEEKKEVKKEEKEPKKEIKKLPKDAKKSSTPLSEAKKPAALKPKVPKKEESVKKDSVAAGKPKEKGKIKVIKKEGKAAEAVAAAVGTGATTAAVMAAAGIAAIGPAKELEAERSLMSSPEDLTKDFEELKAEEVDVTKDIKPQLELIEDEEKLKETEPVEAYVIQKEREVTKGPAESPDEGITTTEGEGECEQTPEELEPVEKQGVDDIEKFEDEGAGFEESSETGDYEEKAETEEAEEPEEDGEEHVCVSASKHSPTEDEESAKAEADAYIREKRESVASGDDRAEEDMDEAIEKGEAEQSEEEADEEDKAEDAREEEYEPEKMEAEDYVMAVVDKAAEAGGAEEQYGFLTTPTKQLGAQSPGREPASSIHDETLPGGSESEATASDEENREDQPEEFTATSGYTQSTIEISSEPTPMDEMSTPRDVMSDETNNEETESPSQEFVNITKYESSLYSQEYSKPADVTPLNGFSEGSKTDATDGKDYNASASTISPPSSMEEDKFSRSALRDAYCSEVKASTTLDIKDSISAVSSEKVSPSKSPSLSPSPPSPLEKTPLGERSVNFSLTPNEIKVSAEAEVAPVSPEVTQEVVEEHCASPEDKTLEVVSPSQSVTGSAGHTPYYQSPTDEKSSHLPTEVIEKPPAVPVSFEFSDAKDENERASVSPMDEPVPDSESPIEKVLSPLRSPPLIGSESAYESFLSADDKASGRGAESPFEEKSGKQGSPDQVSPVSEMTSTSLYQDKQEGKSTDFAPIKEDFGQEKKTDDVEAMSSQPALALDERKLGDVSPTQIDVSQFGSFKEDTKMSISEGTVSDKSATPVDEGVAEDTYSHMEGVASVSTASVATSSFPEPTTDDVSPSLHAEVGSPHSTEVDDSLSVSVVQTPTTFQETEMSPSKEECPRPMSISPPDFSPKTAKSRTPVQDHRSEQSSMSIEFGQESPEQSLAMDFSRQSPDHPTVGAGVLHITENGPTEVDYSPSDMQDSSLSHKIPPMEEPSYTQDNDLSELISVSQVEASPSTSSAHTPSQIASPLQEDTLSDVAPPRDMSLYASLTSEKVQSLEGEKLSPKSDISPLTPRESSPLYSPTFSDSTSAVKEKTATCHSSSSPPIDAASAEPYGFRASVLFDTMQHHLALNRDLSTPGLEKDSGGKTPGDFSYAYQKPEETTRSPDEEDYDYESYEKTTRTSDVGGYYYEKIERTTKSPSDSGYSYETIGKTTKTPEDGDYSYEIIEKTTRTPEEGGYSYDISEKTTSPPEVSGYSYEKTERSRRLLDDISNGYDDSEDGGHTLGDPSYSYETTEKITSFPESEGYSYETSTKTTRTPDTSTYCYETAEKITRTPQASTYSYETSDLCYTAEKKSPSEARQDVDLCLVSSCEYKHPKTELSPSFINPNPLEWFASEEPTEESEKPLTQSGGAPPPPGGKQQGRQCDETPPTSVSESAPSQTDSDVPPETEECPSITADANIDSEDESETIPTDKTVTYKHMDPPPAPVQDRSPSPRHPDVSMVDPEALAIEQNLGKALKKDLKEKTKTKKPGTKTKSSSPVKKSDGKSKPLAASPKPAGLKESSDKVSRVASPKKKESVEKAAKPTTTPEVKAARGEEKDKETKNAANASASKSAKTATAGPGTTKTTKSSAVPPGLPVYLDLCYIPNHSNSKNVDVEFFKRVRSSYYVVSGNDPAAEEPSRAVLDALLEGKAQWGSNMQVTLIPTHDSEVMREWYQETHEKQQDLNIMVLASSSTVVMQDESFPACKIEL
# T4 sequence (Q92616 whole entry): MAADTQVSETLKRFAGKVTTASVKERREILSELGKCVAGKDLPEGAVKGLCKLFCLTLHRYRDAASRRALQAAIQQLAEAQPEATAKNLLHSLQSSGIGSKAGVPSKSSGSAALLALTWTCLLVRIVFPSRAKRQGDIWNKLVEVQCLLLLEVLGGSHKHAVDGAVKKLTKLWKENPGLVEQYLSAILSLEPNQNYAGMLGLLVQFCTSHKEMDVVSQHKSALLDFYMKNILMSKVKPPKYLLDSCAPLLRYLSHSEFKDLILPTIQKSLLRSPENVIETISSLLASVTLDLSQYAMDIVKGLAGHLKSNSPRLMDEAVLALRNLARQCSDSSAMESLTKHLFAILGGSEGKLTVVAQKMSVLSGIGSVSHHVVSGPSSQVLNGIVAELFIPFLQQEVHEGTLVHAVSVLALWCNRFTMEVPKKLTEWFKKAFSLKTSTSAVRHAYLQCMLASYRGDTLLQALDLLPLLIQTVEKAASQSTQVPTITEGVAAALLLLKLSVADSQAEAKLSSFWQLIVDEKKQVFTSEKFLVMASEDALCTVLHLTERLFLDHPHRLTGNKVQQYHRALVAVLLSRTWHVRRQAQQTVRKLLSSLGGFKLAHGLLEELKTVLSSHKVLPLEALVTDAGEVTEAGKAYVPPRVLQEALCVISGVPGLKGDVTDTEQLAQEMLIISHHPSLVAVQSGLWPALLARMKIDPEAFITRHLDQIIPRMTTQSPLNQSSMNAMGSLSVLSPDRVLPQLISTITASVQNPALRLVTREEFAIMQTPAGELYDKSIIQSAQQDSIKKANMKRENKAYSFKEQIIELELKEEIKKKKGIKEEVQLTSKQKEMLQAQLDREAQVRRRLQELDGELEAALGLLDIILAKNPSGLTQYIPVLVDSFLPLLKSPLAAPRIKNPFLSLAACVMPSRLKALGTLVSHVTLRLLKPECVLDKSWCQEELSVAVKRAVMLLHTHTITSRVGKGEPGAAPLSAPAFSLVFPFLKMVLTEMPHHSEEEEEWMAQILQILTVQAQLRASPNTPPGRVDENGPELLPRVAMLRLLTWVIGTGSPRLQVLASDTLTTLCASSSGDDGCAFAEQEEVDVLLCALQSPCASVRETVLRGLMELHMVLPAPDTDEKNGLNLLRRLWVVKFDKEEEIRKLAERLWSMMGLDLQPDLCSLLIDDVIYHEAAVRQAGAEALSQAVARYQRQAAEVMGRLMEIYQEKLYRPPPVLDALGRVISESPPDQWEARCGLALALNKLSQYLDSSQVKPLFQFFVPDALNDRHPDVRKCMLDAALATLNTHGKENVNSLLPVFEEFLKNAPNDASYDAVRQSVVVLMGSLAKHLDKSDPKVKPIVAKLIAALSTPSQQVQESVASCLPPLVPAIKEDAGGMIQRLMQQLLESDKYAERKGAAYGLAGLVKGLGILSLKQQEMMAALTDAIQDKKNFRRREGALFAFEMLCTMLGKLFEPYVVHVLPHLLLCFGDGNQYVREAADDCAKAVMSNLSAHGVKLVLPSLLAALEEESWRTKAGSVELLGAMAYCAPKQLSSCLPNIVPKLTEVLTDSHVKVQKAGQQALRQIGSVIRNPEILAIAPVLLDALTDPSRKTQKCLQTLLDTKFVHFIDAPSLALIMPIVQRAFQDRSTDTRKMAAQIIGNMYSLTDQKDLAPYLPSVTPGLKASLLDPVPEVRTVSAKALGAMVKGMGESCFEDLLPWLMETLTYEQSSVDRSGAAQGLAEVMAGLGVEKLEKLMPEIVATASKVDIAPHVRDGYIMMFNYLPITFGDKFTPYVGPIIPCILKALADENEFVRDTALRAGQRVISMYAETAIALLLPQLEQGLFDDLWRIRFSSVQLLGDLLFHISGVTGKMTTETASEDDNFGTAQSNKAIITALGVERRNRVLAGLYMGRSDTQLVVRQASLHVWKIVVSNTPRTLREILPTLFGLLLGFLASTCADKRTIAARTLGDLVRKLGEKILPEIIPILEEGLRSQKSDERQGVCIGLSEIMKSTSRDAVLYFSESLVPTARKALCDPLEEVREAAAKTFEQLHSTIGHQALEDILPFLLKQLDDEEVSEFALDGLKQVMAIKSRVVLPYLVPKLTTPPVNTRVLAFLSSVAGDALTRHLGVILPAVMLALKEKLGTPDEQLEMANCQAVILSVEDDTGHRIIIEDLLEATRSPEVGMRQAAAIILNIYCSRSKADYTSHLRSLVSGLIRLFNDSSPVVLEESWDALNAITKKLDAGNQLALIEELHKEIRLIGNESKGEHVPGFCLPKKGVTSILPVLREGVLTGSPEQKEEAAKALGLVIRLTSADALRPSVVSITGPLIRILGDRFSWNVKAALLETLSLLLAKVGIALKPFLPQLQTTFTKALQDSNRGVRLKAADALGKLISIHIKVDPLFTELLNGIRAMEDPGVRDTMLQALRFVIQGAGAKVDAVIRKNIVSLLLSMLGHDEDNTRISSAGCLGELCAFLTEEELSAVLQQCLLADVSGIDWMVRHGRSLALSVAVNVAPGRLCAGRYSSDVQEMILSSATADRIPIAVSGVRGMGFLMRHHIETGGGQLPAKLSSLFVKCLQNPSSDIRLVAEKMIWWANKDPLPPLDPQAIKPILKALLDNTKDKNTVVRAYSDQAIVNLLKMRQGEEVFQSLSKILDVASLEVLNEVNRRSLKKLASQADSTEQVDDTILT
smiles,measurement,setting,value
C=CC(=O)N(c1ccccc1)c1ccc(Br)cc1 [KB05],inhibition at 100 µM,Q969K4,3%
same,inhibition at 100 µM,Q96Q27,36%
O=C(CCl)Nc1cc(C(F)(F)F)cc(C(F)(F)F)c1 [KBO3],Liganded,"[1]; MAP1B Res# 382, uniprot P46821",YES
same,100 ave,[1]; uniprot P46821,37.5
same,500 ave,[1]; uniprot P46821,75.17
same,500 Max,"[1]; uniprot P46821, in % (unit assumed)",75.17
same,100 Max,"[1]; uniprot P46821, unit assumed",37.5%
same,Liganded,"[2]; GCN1L1 Res# 648, uniprot Q92616",YES
same,100 Max,[2]; uniprot Q92616,28.59
same,100 ave,[2]; uniprot Q92616,25.61
same,500 Max,[2]; uniprot Q92616,80.3
same,500 ave,[2]; uniprot Q92616,78.745
same,KB03_100 uM_percent_inhibition,Q9Y576,51%
COc1ccc2c(c1)CCCN2C(=O)CCl [KB02],Liganded,"[3]; ABCD3 Res# 472, uniprot P28288",YES
same,Liganded,"[3]; ABCD3 Res# 477, uniprot P28288",YES
same,Liganded,"[4]; ZNF638 Res# 1023, uniprot Q14966",YES
same,Liganded,"[4]; ZNF638 Res# 1026, uniprot Q14966",YES
same,KB02_100 uM_percent_inhibition,Q8N961; 100 uM,60%
same,inhibition at 100 µM,Q8N961; read-out: KB02_100 uM_percent_inhibition,52%
same,KB02_100 uM_percent_inhibition,Q9NR09,24%
same,inhibition at 100 µM,A6QL63,9%
